{
  "source": "patent US8815812B2",
  "about": "“Synthetic arginine substituted peptides and their use” (Inger Mattsby-Baltzer, priority 2007, dated 2014)",
  "experiment_in_all_cases": "Antimicrobial assay (MMC99) in 1% Bactopeptone",
  "type_in_all_cases": "cell-based",
  "conditions_in_all_cases": "99% reduction of the inoculum",
  "key": {"[1]": {"system": "C. albicans", "method": "(§1) [NT] […] Washed cells were suspended in 1% Bactopeptone (BP) (Difco, USA). The concentration of bacterial or fungal cells was spectrophotometrically adjusted. Peptides serially diluted in BP by twofold steps were added in duplicate or triplicate to the wells of a microtiterplate (200 μl per well). The bacterial or yeast cell solutions were added in 10 μl volumes to give a final concentration of approximately 2×10^5 cells per ml. The concentration of the stock solution was always checked by viable counts. The microplate was incubated at 37° C. in a humid chamber for 2 h unless otherwise stated. Five μl were taken from each well and added as a drop onto a blood agar plate and incubated over night at 37° C. The concentration of lactoferrin or peptide causing a 99% reduction of the inoculum was defined as the MMC99."}, "[2]": {"system": "E. coli", "method": "as §1"}, "[3]": {"system": "S. aureus", "method": "as §1"}},
  "note": "Where no end group is shown, it is not given here.",
  "data": [
    {"sequence": "GRRRRSVQWCAVSQPEATKCFQWQRNMRKVR (cysteine pairing not given here) [HLBD31]", "values": [
      {"measurement": "MMC99", "setting": "[1]; 2 h", "value": 25, "unit": "µg/mL"},
      {"measurement": "MMC99", "setting": "[1]; 24 h", "value": 38, "unit": "µg/mL"},
      {"measurement": "MMC99", "setting": "[2]; 2 h", "value": ">100", "unit": "µg/mL"},
      {"measurement": "MMC99", "setting": "[2]; 24 h", "value": 50, "unit": "µg/mL"},
      {"measurement": "MMC99", "setting": "[3]; 2 h", "value": 100, "unit": "µg/mL"},
      {"measurement": "MMC99", "setting": "[3]; 24 h", "value": 100, "unit": "µg/mL"}
    ]}
  ]
}
